Details of data set [1]: method as in PMID 6076213. To be noted: selenyl group versus sulfhydryl group; cited from earlier work.
Data set [2] deals with selenoprotein P (SELENOP). Kind of data set: Bioavailability in vivo: recovery of serum SELENOP in Se-deficient rats by LC-ICP-MS. The following applies: oral 10 μg Se/rat once a day for 2 days, serum 24 h after administration. How it is done:
(§1) Two major serum selenoproteins were detected by LC-ICP-MS (Figure 4a). The peak detected at the retention time of 11.0 min was assigned to extracellular glutathione peroxidase (GPX3), and the peak at the retention time of 13.5 min was assigned to selenoprotein P (SELENOP) according to our previous literature. The abbreviations of the selenoproteins (GPX3 and SELENOP) were adopted in accordance with the latest nomenclature. We used the recovery amounts of serum selenoproteins in Se-deficient rats as the index of Se bioavailability when a selenocompound was administered to an Se-deficient rat. […] Sera sampled from rats administered each bioselenocompound were analyzed for the recovery of Se in the form of selenoproteins by LC-ICP-MS, and their bioavailabilities, namely, the assimilation of Se into GPX3 and SELENOP, are summarized in Figure 4c,d, respectively. Coinciding with a previous study, SELENOP was more efficiently recovered than GPX3 in the Se-deficient rats 24 h after the repletion of the bioselenocompounds except for TMSe^+. There were no significant differences in the recovery of GPX3 among all the bioselenocompounds except for TMSe^+ (Figure 4c). As SELENOP was more efficiently recovered, the recovery of SELENOP by all the bioselenocompounds except TMSe^+ was more obvious than that of GPX3 (Figure 4d). […] Therefore, there were no significant differences in the bioavailability in vivo among all the bioselenocompounds except TMSe^+.
(§2) Specific pathogen free (SPF) male Wistar rats (4 weeks of age) were purchased from Japan SLC (Shizuoka, Japan) and were housed in a humidity-controlled room maintained at 25 ± 2 °C with a 12 h light-dark cycle. The rats were fed a commercial diet (MF, Oriental Yeast Co., Ltd., Tokyo, Japan) and tap water ad libitum. After a one-week acclimation period, diet and water were changed to a Se-deficient diet (Oriental Yeast) and Milli-Q water (18.3 MΩ·cm), respectively. The rat fed the Se-deficient diet and the Milli-Q water for 3 weeks was used as an Se-deficient rat. The rats continuously fed the commercial diet and tap water served as the positive control.
(§3) The Se-deficient rats were orally administered each Se compound in saline at a dose of 10 μg Se/rat once a day for 2 consecutive days. The saline-administered rats served as the negative control. All the rats were sacrificed 24 h after administration by exsanguination under anesthesia. Non-heparinized blood was collected and clotted blood was centrifuged at 1600× g for 10 min to obtain serum. A 20 μL aliquot of the serum was applied to an HPLC coupled with an ICP-MS to analyze the distribution of Se. […]

Data set [3] has as its system HepG2 cells. The experiment in a line: Cell viability / proliferation assay (CellTiter 96 Aqueous One) in HepG2 cells. The following applies: for dose from which toxicity was dose-dependent: 24 and 48 h exposure; for effect on cell proliferation: 24 h exposure; for effect on cell viability / proliferation / dose at which cytotoxicity / reduced cell viability was seen: 48 h exposure. As for the experimental part: (§4) Caco-2 cells were used in the in vitro permeability assay in the next experiment, and the cytotoxicity of bioselenocompounds was assayed 6 h after exposure to evaluate the harmful effects of bioselenocompounds on the cells. The cytotoxicity and/or proliferative effects of bioselenocompounds on HepG2 cells were analyzed 24 and 48 h after exposure.
(§5) A human colon carcinoma cell line (Caco-2) and a human hepatocyte carcinoma cell line (HepG2) were obtained from Riken BioResource Center (Wako, Japan). The composition of the passaging medium for Caco-2 or HepG2 was Eagle’s Minimum Essential Medium (MEM) with 20% FBS, 1% non-essential amino acid (NEAA), and 1% penicillin-streptomycin, or Dulbecco’s Modified Eagle’s Medium (DMEM) with 10% FBS and 1% penicillin-streptomycin, respectively. Caco-2 cells were seeded on a 96-well plate at 5500 cells/well and incubation was carried out for 2 days. […] Cell viability was determined by the CellTiter 96® Aqueous One Solution Cell Proliferation Assay (Promega, Madison, WI, USA) based on mitochondrial respiratory activity. HepG2 cells were seeded on a 96-well plate at 5000 cells/well and incubation was carried out for 1 day. Then, the cells were exposed to a Se compound, and cell viability was determined by using the same protocol as that mentioned above.

Data set [4] concerns Caco-2 cells. The experiment in a line: Cell viability assay (CellTiter 96 Aqueous One) in Caco-2 cells. The following applies: 6 h exposure; for dose at or above which cell viability was significantly reduced: p < 0.05. How it is done: as §4, §5
Data set [5] deals with extracellular glutathione peroxidase (GPX3). The experiment in a line: Bioavailability in vivo: recovery of serum GPX3 in Se-deficient rats by LC-ICP-MS. The following applies: oral 10 μg Se/rat once a day for 2 days, serum 24 h after administration. How it is done:
as §1, §2, §3

Data set [6] relates to Caco-2 cells. The experiment in a line: In vitro permeability assay using Caco-2 cell monolayers. In kind it is in vitro ADME, human. The following applies: for permeability in the presence of Met: with 10 mM Met versus without. As for the experimental part:
The bioselenocompounds were evaluated and compared in accordance with the standard protocol of the in vitro permeability assay using Caco-2 cells.
Figure 3 Permeability from the apical side to the basolateral side of Caco-2 cells. The permeability of the nine bioselenocompounds was compared (a). A 500 μL aliquot of fresh medium containing 1 μg Se/mL of each bioselenocompound was poured into the insert and the medium in the lower chamber was collected after 90 min. Values and bars are means ± SD for 3 wells. Statistical analysis was performed by the Tukey test. […] The effects of Met on the permeability of SeMet and MeSeCys were evaluated (b). Hatched and solid bars represent with and without 10 mM Met, respectively. Points and bars are means ± SD for 3 wells. Statistical analysis include the one-way analysis of variance followed by the Student’s t-test. The level of significance was set at p < 0.05, and is indicated by an asterisk (*).
Confluent Caco-2 cells at the cell density of around 20,000 cells/cm^2 were harvested by trypsinization and suspended in basal medium (Corning, Corning, NY, USA) containing MITO+ Serum Extender (Corning) at the cell density of 4 × 10^5 cells/mL. A 0.5 mL aliquot of the cell suspension was seeded on the inserts of a Falcon 24-Multiwell Insert System (Corning). The inserts were transferred onto a 24-well plate that contained 1 mL of basal medium, and incubation was carried out for 24 h. Then, the basal medium was carefully removed from the wells and the inserts, and 1.0 and 0.5 mL aliquots of the differentiation medium (Entero-STIM) containing MITO+ Serum Extender (Corning) were added to the wells and the inserts, respectively. The plate was incubated for another 3 days to induce the formation of a monolayer of differentiated Caco-2 cells. The medium was carefully removed from the inserts and the inserts were washed with transport buffer (HBSS + 10 mM HEPES, pH 7.4). Then, a 350 μL aliquot of each Se compound solution in transport buffer or this solution with 10 mM L-methionine (Wako) was added to the insert chamber. These inserts were transferred onto a plate and a 50 μL aliquot was withdrawn from the chamber of each insert for measurement of the initial concentration of the donor chamber. One milliliter of transfer buffer was added to the plate wells and the plate was incubated on an orbital shaker at 37 °C for 90 min in a CO2 incubator. The transport buffer in the lower chamber was collected to determine Se concentration 90 min after the incubation. Se concentrations were measured by an inductively coupled plasma mass spectrometer (ICP-MS, Agilent 7700cx, Agilent, Hachiouji, Japan). The Se compound solution in the chamber of each insert was removed and a 300 μL aliquot of 300 μM Lucifer Yellow (LY) solution was added to the upper chamber. Then, the concentration of LY that permeated the lower chamber was determined by a fluorescence photometer (excitation wavelength: 485 nm, emission wavelength: 538 nm). Monolayers producing 0.3%–2.0% LY flux were recognized as intact monolayers of differentiated Caco-2 cells. Monolayers with flux exceeding 2.0% were excluded from the experiment.
A general note: Passage across Caco-2 layers is used to estimate intestinal permeability.

Data set [7] relates to Caco-2 and HepG2 cells. The experiment in a line: Proliferative effect under standard culture conditions for Caco-2 and HepG2 cells. To be noted: data not shown. The data set is classed as cell-based, human. As for the experimental part:
as §5

On the set-up of data set [8]: method as in PMID 26243445. The following applies: cited from earlier work.
Setting [9] is: Caco-2 monolayer, 1 μg Se/mL, 90 min, mean ± SD for 3 wells.

In the case of `N[C@@H](CS)C(=O)O` [Cys], the pKa in data set [1] is given as 8.3.

On to `N[C@@H](C[SeH])C(=O)O` [SeCys, selenocysteine], for which the pKa in data set [1] was 5.2.

On to `O=[Se]([O-])[O-].[Na+].[Na+]` [selenite, Sodium selenite], for which the “recovery of serum SELENOP (assimilation of Se)” value in data set [2] is “recovery of both selenoproteins was observed”. In addition, the “dose from which toxicity was dose-dependent” value in data set [3] is at least 0.8 μg Se/mL. In addition, the “dose at or above which cell viability was significantly reduced” value in data set [4] is reported as at least 8.0 μg Se/mL. The “recovery of serum GPX3 (assimilation of Se)” value in data set [5] is listed as “recovery of both selenoproteins was observed”. Moreover, in data set [6] (setting [9]), the percentage permeation is 3.4% ± 0.066%.

Consider `C[Se]CC[C@H](N)C(=O)O` [SeMet, seleno-L-methionine], for which, in data set [3], the “effect on cell proliferation” value is “stimulated the proliferation” and the “effect on cell viability / proliferation” value is on record as “marginal cytotoxicity rather than a proliferative effect”. Besides, the “permeability in the presence of Met” value in data set [6] (Caco-2 monolayer) is listed as “reduced”.

For the compound `C[Se+](C)C.[I-]` [TMSe^+, Trimethylselenonium iodide], in data set [2], the “recovery of serum SELENOP (assimilation of Se)” value is listed as “did not have any apparent effects”. In data set [5], the “recovery of serum GPX3 (assimilation of Se)” value is “did not have any apparent effects”. Moreover, the percentage permeation in data set [6] (Caco-2) is 3% ± 0.42%.

In the case of `N[C@@H](C[Se][Se]C[C@H](N)C(=O)O)C(=O)O` [SeCys2, L-selenocystine], in data set [3], the “dose from which toxicity was dose-dependent” value was at least 0.4 μg Se/mL. In addition, in data set [4], the “dose at or above which cell viability was significantly reduced” value is listed as at least 0.8 μg Se/mL.

S-methylcysteine [MeCys]: the proliferative effects result in data set [7] is reported as “no proliferative effects”.

On to Lucifer Yellow [LY, reference compound], for which the percentage permeation in data set [6] (Caco-2) is on record as 0.81% ± 0.36%.

Regarding `CSCC[C@H](N)C(=O)O` [Met, L-methionine], the proliferative effects result in data set [7] was “no proliferative effects”.

For the compound `N#C[Se-].[K+]` [SeCN^−, potassium selenocyanate], the “recovery of serum SELENOP (assimilation of Se)” value in data set [2] is on record as “comparable to selenite”. Also, in data set [3], the “dose at which cytotoxicity / reduced cell viability was seen” value was 80 μg Se/mL. For the same compound, the “toxicity relative to selenite” value in data set [8] is “less toxic than selenite”. Also, the “recovery of serum GPX3 (assimilation of Se)” value in data set [5] is “comparable to selenite”. Further, in data set [6] (setting [9]), the percentage permeation is 3.8% ± 0.44%.

With `C[Se]C[C@H](N)C(=O)O` [MeSeCys, Se-Methylseleno-L-cysteine], in data set [3], the “effect on cell proliferation” value is recorded as “stimulated the proliferation”, the “dose at which cytotoxicity / reduced cell viability was seen” value was at least 40 μg Se/mL and the “effect on cell viability / proliferation” value is “still induced the cell proliferation at low doses”. Also, in data set [4] (dose-dependent), the “dose from which cell viability was significantly increased (proliferation)” value was at least 0.8 μg Se/mL. Also, the “permeability in the presence of Met” value in data set [6] (Caco-2 monolayer) is “reduced”.

Take `C[Se]C1OC(CO)C(O)C(O)C1NC(C)=O` (stereo not drawn) [SeSug1, Se-methylseleno-N-acetylgalactosamine]: the “recovery of serum SELENOP (assimilation of Se)” value in data set [2] is given as “equivalent effect to selenite”. The “recovery of serum GPX3 (assimilation of Se)” value in data set [5] was “equivalent effect to selenite”.

Broadly, the pKa is the pH at which an ionisable group is half protonated.

The values above are taken from publication PMC5372522, “Bioavailability Comparison of Nine Bioselenocompounds In Vitro and In Vivo” (International Journal of Molecular Sciences, 2017).
